A compilation of properties of binary mixtures (doi:10.1016/j.fluid.2022.113559)

Experiment: xn = mol fraction of the nth substance listed
Conditions: 101 kPa, x1 = 0.3333

Compound | viscosity (283.15 K) [mPa·s] | viscosity (298.15 K) [mPa·s] | viscosity (303.15 K) [mPa·s] | viscosity (308.15 K) [mPa·s] | viscosity (318.15 K) [mPa·s] | viscosity (323.15 K) [mPa·s] | viscosity (328.15 K) [mPa·s] | viscosity (333.15 K) [mPa·s] | viscosity (338.15 K) [mPa·s] | viscosity (343.15 K) [mPa·s] | viscosity (353.15 K) [mPa·s] | viscosity (288.15 K) [mPa·s] | viscosity (313.15 K) [mPa·s] | viscosity (348.15 K) [mPa·s]
CCOS(=O)(=O)[O-].CC[n+]1ccn(C)c1 + CS(C)=O | 4.35 | 3.16 | 2.83 | 2.53 | 2.02 | 1.82 | 1.64 | 1.5 | 1.39 | 1.32 | 1.24 |  |  | 
CC[n+]1ccn(C)c1.N#C[S-] + CS(C)=O | 3.95 | 2.92 | 2.63 |  | 1.91 | 1.73 |  | 1.44 | 1.34 | 1.26 | 1.19 | 3.58 | 2.12 | 1.21
